The values below come from patent US20040063649A1, “Azithromycin combination for emesis control in mammals” (Pfizer Inc, priority 1999, published 2004).

Each structure is given as a SMILES string.

Assay [1] concerns azithromycin-induced emesis in random source dogs. Put plainly: Control of azithromycin-induced emesis in random source dogs. It counts as in vivo, dog. Particulars: for Emetic Dogs/Total Dogs: Random source dogs, 0 minutes before (simultaneously with) azithromycin 10 mg/kg. On the procedure:
(§1) The ability of various compounds to control azithromycin-induced emesis in dogs was measured in 13 studies using two groups of dogs. The majority of the studies were conducted using a family (dam and offspring) of 12 azithromycin-sensitive English pointers, bred and maintained by Young Veterinary Research Services of Turlock, Calif. The remaining studies were conducted using random source dogs maintained at the Pfizer Animal Health Research facility in Terre Haute, Ind. In all studies, azithromycin was administered in immediate release formulations at a dose of 10 mg/kg.
(§2) Four studies were conducted to titrate the dose of CP122,721 for maximum antiemetic activity with and without a delay between oral antiemetic and oral azithromycin dosing. […] While these studies were in progress, random source dogs (8 per-treatment) were administered 0, 1.5 or 3 mg/kg CP122,721 simultaneously with 10 mg/kg azithromycin. […] In the fourth study, the sensitive pointers received either 3 or 4 mg/kg CP122,721 simultaneously with azithromycin. The incidence of emesis was equivalent with one dog in each treatment group vomiting.

The test system of assay [2] is emesis in ferrets. Particulars: vomiting caused by intragastric copper sulfate and ipecac syrup, subcutaneous loperamide, intraperitoneal cisplatin; cited from earlier work.
Assay [3] deals with azithromycin-induced emesis in azithromycin-sensitive English pointers. Put plainly: Control of azithromycin-induced emesis in an azithromycin-sensitive dog population. It counts as in vivo. On the procedure: as §1
Initially, four commercialized antiemetic products and CP122,721 were screened individually in the azithromycin-sensitive population with a minimum 7 day washout period between antiemetic tests. Antiemetics were administered orally about 15 to 30 minutes prior to oral treatment with 10 mg/kg azithromycin in an immediate release tablet. […] Other antiemetics reduced the incidence of emesis by only about 10 to 42%.
as §2

Where [4] appears, read: antiemetic 1 mg/kg oral, 30 minutes before azithromycin 10 mg/kg oral immediate release tablet.

For the molecule `COc1ccc(OC(F)(F)F)cc1CN[C@H]1CCCN[C@H]1c1ccccc1` [CP122,721, (2S,3S)-3-(2-methoxy-5-trifluoromethoxybenzyl)amino-2-phenylpiperidine], the “Emetic Dogs/Total Dogs” value in assay [1] (CP122,721 1.5 mg/kg) is given as 4/8; in assay [1] (CP122,721 3 mg/kg) it was 0/8; in assay [3] (Sensitive dogs, 30 minutes before azithromycin 10 mg/kg) it was 0/4; in assay [3] (Sensitive dogs, CP122,721 1 mg/kg oral, 30 minutes before azithromycin 10 mg/kg), 4/4; in assay [3] (Sensitive dogs, CP122,721 2.5 mg/kg oral, 0 minutes before (simultaneously with) azithromycin 10 mg/kg), 6/6; in assay [3] (Sensitive dogs, CP122,721 2.5 mg/kg oral, 30 minutes before azithromycin 10 mg/kg), 0/6. Moreover, the “Emetic Dogs/Total Dogs” value is listed as 1/6 in assay [3] (Sensitive dogs, CP122,721 3 mg/kg, 0 minutes before (simultaneously with) azithromycin 10 mg/kg); 1/6 in assay [3] (Sensitive dogs, CP122,721 4 mg/kg, 0 minutes before (simultaneously with) azithromycin 10 mg/kg); 0/4 in assay [3] (Sensitive dogs, CP122,721 dose cell blank (third line of first titration), 30 minutes before azithromycin 10 mg/kg); 0/12 in assay [3] (antiemetic 5 mg/kg oral, 30 minutes before azithromycin 10 mg/kg oral immediate release tablet). Also, in assay [1] (random source dogs, 8 per treatment, 1.5 mg/kg simultaneously with 10 mg/kg azithromycin), the “incidence of emesis (in words)” value is given as “not reduced”. In addition, the “prevention of azithromycin emesis (in words)” value in assay [1] (random source dogs, 8 per treatment, 3 mg/kg simultaneously with 10 mg/kg azithromycin) is listed as “completely effective”. The “effect on vomiting in ferrets (in words)” value in assay [2] is on record as “reduces vomiting”. The “effective in preventing emesis” value in assay [3] (5 mg/kg oral, about 15 to 30 minutes prior to oral azithromycin 10 mg/kg) was 100%. Also, the “emesis (in words)” value in assay [3] (sensitive pointers, 2.5 mg/kg simultaneously with azithromycin) is reported as “all pointers were emetic”. In addition, the “prevention of emesis (in words)” value in assay [3] (sensitive pointers, 2.5 mg/kg, 30 minutes prior to azithromycin) is “effective in preventing emesis”. The “dogs vomiting in treatment group” value is given as “one” in assay [3] (sensitive pointers, 3 mg/kg simultaneously with azithromycin) and “one” in assay [3] (sensitive pointers, 4 mg/kg simultaneously with azithromycin).
Consider `CN(C)CCOC(c1ccccc1)c1ccccc1.Cn1c(=O)c2[nH]c(Cl)nc2n(C)c1=O` [Dimenhydrinate, reference compound], for which, in assay [3] (antiemetic 8 mg/kg oral, 30 minutes before azithromycin 10 mg/kg oral immediate release tablet), the “Emetic Dogs/Total Dogs” value is recorded as 10/12.
On to `CCN(CC)CCNC(=O)c1cc(Cl)c(N)cc1OC` [Metoclopramide, reference compound], for which, in assay [3] (antiemetic 0.5 mg/kg oral, 15 minutes before azithromycin 10 mg/kg oral immediate release tablet), the “Emetic Dogs/Total Dogs” value is reported as 11/12.
As for `Cc1nccn1CC1CCc2c(c3ccccc3n2C)C1=O` (centres unmarked) [Ondansetron, reference compound], the “Emetic Dogs/Total Dogs” value in assay [3] (setting [4]) is 5/12. In addition, the “reduction of the incidence of emesis” value in assay [3] (antiemetic oral about 15 to 30 minutes prior to oral azithromycin 10 mg/kg, doses as in Table 1) worked out at 58%.
For the molecule `CN1CCN(CCCN2c3ccccc3Sc3ccc(Cl)cc32)CC1` [Prochlorperazine, reference compound], the “Emetic Dogs/Total Dogs” value in assay [3] (setting [4]) is recorded as 7/12.
